Assay results reported in the SangsterLogP compilation.

Assays:
[1] = method code SF, from DOI: 10.1002/ps.2780140605

logP [1]	logP	SMILES
2.14		C#CCC(O)(c1cccnc1)c1ccc2ccccc2c1 (stereo not drawn)
1.29		C#CCC(O)(CC#C)c1cccnc1
1.78		C#CCC(O)(c1ccc(F)cc1)c1cccnc1 (stereo not drawn)
2.16		C#CCC(O)(c1ccc(C(C)C)cc1)c1cccnc1 (stereo not drawn)
2.29		C#CCC(O)(c1cccnc1)c1ccc(Cl)cc1Cl (stereo not drawn)
2.42		C#CCC(O)(c1cccnc1)c1ccc(Cl)c(Cl)c1 (stereo not drawn)
	1.21	C#CCC(O)c1cccnc1 (stereo not drawn)
2.09		C#CCC(O)(c1cccnc1)C1CCCCC1 (stereo not drawn)
